According to PMC6035176, “Chemo-manipulation of tumor blood vessels by a metal-based anticancer complex enhances antitumor therapy” (Scientific Reports, 2018):

Target: T1, Poly(ADP-Ribose) Polymerase type 1 (PARP-1) (Homo sapiens, UniProt P09874)
T1 construct: gene PARP1
Assay: in vitro colorimetric PARP-1 activity assay
Assay type: biochemical

T1 sequence (P09874 2-1014): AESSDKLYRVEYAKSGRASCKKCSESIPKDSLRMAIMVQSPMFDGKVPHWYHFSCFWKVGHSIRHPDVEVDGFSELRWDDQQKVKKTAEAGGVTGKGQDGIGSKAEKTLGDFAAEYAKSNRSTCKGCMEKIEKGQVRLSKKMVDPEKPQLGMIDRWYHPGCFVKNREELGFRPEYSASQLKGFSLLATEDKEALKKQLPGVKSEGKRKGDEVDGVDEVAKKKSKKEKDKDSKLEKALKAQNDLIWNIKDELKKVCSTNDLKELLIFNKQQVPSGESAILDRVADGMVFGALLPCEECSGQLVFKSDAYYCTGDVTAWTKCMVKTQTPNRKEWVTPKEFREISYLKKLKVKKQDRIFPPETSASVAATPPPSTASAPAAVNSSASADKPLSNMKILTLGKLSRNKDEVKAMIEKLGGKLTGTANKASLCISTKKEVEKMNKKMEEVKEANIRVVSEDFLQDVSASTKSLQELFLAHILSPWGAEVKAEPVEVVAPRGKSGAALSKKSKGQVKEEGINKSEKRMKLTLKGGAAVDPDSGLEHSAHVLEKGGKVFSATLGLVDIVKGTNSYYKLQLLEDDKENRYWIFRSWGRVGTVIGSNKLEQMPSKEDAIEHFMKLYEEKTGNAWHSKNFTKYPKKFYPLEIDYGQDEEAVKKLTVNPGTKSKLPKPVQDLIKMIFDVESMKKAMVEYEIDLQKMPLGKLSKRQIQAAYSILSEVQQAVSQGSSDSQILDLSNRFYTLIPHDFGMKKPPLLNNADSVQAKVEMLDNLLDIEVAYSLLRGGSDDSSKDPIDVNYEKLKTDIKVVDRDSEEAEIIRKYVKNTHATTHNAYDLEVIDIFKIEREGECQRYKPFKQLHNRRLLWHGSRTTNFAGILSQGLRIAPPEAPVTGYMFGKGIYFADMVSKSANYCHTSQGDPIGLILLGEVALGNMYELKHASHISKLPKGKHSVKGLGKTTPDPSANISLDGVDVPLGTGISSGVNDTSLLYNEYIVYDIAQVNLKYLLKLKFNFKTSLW

- IC50: 400 µM
Substance: RAPTA-T
